# Read-outs that look alike come from different tables or passages of the source.
# Columns and labels:
# [1] = tested on: A. fumigatus RCMB 02568; test: Agar well diffusion, inhibition zone; format: cell-based; conditions: Aspergillus fumigatus
# [2] = tested on: C. albicans ATCC 10231; test: Agar well diffusion, inhibition zone; format: cell-based; conditions: Candida albicans
# [3] = tested on: C. albicans ATCC 10231; test: MIC, two-fold serial dilution; conditions: for MIC: Candida albicans, ATCC10231, read-out: MIC C. albicans ATCC 10231
# [4] = tested on: A. fumigatus RCMB 02568; test: MIC, two-fold serial dilution; conditions: for MIC: Aspergillus fumigatus, RCMB02568, read-out: MIC A. fumigatus RCMB 02568
# [5] = tested on: S. pneumoniae 010010; test: Agar well diffusion, inhibition zone; format: cell-based
# [6] = tested on: P. aeruginosa; test: Agar well diffusion, inhibition zone; format: cell-based; conditions: Pseudomonas aeruginosa, read-out: Mean diameter of inhibition zone (mean ± SEM) P. aeruginosa
# [7] = tested on: P. aeruginosa; test: MIC, two-fold serial dilution; conditions: for MIC: Pseudomonas aeruginosa, read-out: MIC P. aeruginosa
# [8] = tested on: S. aureus 25923; test: MIC, two-fold serial dilution; conditions: Staphylococcus aureus, 25923, read-out: MIC S. aureus 25923
# [9] = tested on: HepG-2 cells; test: In vitro cytotoxicity, MTT assay, HepG-2; conditions: Homo sapiens, HepG2, read-out: IC50 HepG-2
# [10] = tested on: S. pneumoniae 010010; test: MIC, two-fold serial dilution; conditions: for MIC: Streptococcus pneumoniae, 010010, read-out: MIC S. pneumoniae 010010
# [11] = tested on: E. faecalis; test: MIC, two-fold serial dilution; conditions: Enterococcus faecalis, read-out: MIC E. faecalis
# [12] = tested on: E. coli RCMB 010052; test: Agar well diffusion, inhibition zone; format: cell-based; conditions: Escherichia coli
# [13] = tested on: S. typhi ATCC 14028; test: Agar well diffusion, inhibition zone; format: cell-based; conditions: Salmonella enterica, read-out: Mean diameter of inhibition zone (mean ± SEM) S. typhi ATCC 14028
# [14] = tested on: E. faecalis; test: Agar well diffusion, inhibition zone; format: cell-based; conditions: Enterococcus faecalis, read-out: Mean diameter of inhibition zone (mean ± SEM) E. faecalis
# [15] = tested on: MCF-7 cells; test: In vitro cytotoxicity, MTT assay, MCF-7; conditions: Homo sapiens, MCF7, read-out: IC50 MCF-7
# [16] = tested on: S. typhi ATCC 14028; test: MIC, two-fold serial dilution; format: cell-based; conditions: Salmonella enterica, read-out: MIC S. typhi ATCC 14028
# [17] = tested on: E. coli RCMB 010052; test: MIC, two-fold serial dilution; conditions: Escherichia coli, RCMB010052, read-out: MIC E. coli RCMB 010052
# [18] = tested on: S. aureus 25923; test: Agar well diffusion, inhibition zone; format: cell-based
# [19] = Streptococcus pneumoniae, 010010, read-out: Mean diameter of inhibition zone (mean ± SEM) S. pneumoniae 010010
# [20] = RCMB02568, read-out: Mean diameter of inhibition zone (mean ± SEM) A. fumigatus RCMB 02568
# [21] = ATCC10231, read-out: Mean diameter of inhibition zone (mean ± SEM) C. albicans ATCC 10231
# [22] = RCMB010052, read-out: Mean diameter of inhibition zone (mean ± SEM) E. coli RCMB 010052
# [23] = Staphylococcus aureus, 25923, read-out: Mean diameter of inhibition zone (mean ± SEM) S. aureus 25923
Structure (SMILES),MIC [3] [µM],MIC [4] [µM],"zone of inhibition at 500 µg/mL [5, 19] [mm]",zone of inhibition at 500 µg/mL [6] [mm],melting point [°C],MIC [7] [µM],MIC [8] [µM],"zone of inhibition at 500 µg/mL [1, 20] [mm]",IC50 [9] [µM],"zone of inhibition at 500 µg/mL [2, 21] [mm]",MIC [10] [µM],MIC [11] [µM],"zone of inhibition at 500 µg/mL [12, 22] [mm]",zone of inhibition at 500 µg/mL [13] [mm],zone of inhibition at 500 µg/mL [14] [mm],IC50 [15] [µM],MIC [16] [µM],MIC [17] [µM],"zone of inhibition at 500 µg/mL [18, 23] [mm]",other results
"C[C@@H]1[C@H](O)[C@@H](C)/C=C/C=C/C=C/C=C/C=C/C=C/C=C/[C@H](O[C@@H]2O[C@H](C)[C@@H](O)[C@H](N)[C@@H]2O)C[C@@H]2O[C@](O)(C[C@@H](O)C[C@@H](O)[C@H](O)CC[C@@H](O)C[C@@H](O)CC(=O)O[C@H]1C)C[C@H](O)[C@H]2C(=O)O [Amphotericin B, reference compound]",67.8,39.1,–,–,–,–,–,–,–,–,–,–,–,–,–,–,–,–,–,"zone of inhibition at 500 µg/mL ([1]; RCMB02568, well diffusion agar, 0.5 mg/mL, read-out: Mean diameter of inhibition zone (mean ± SEM) A. fumigatus RCMB 02568): 22 ± 0.72 mm; zone of inhibition at 500 µg/mL ([2]; ATCC10231, well diffusion agar, 0.5 mg/mL, read-out: Mean diameter of inhibition zone (mean ± SEM) C. albicans ATCC 10231): 20 ± 0.78 mm"
"Cc1c(Nc2nc3c(C#N)c(N)sc3s2)c(=O)n(-c2ccccc2)n1C [Compound 3a, 5-Amino-2-((1,5-dimethyl-3-oxo-2-phenyl-2,3-dihydro-1H-pyrazol-4-yl)amino)thieno [3,2-d]thiazole-6-carbonitrile]",186,120,21 ± 0.69,22 ± 0.44,> 300,40.5,16.9,18 ± 0.25,25.72 ± 0.03,12 ± 0.51,58.9,185,25 ± 0.15,17 ± 0.95,13 ± 0.76,27.58 ± 0.01,125,19.4,28 ± 0.15,"fold more potency than streptomycin, P. aeruginosa ([7]; from MIC): 1.6 folds; fold more potency than streptomycin, S. pneumoniae ([10]; from MIC): 1.1 folds; MIC C. albicans ATCC 10231 ([3]; two-fold serial dilution): completely lost; MIC A. fumigatus RCMB 02568 ([4]; two-fold serial dilution): completely lost"
"CCOC(=O)c1c(N)sc2sc(Nc3c(C)n(C)n(-c4ccccc4)c3=O)nc12 [Compound 3b, Ethyl 5-amino-2-((1,5-dimethyl-3-oxo-2-phenyl-2,3-dihydro-1H-pyrazol-4-yl)amino) thieno[3,2-d]thiazole-6-carboxylate]",189,62.1,14 ± 0.84,17 ± 0.41,285 to 287,125,79,21 ± 0.22,39.02 ± 0.02,11 ± 0.7,179,67.4,15 ± 0.71,23 ± 0.79,20 ± 0.24,36.77 ± 0.02,45.6,119,19 ± 0.68,–
"Cc1c(Nc2nc3c(C(N)=S)c(N)sc3s2)c(=O)n(-c2ccccc2)n1C [Compound 3d, 5-Amino-2-((1,5-dimethyl-3-oxo-2-phenyl-2,3-dihydro-1H-pyrazol-4-yl)amino) thieno[3,2-d]thiazole-6-carbothioamide]",132,118,28 ± 0.45,20 ± 0.19,297 to 299,67,181,19 ± 0.45,16.91 ± 0.01,16 ± 0.28,16.2,75.5,22 ± 0.14,18 ± 0.13,22 ± 0.11,18.19 ± 0.01,121,71.8,13 ± 0.95,–
"Cc1c(Nc2nc3c(s2)sc(=S)n3-c2ccccc2)c(=O)n(-c2ccccc2)n1C [Compound 5a, 1,5-Dimethyl-2-phenyl-4-((4-phenyl-5-thioxo-4,5-dihydrothiazolo[4,5-d]thiazol-2-yl)amino)-1H-pyrazol-3(2H)-one]",–,197,–,–,201 to 203,–,63.6,9 ± 0.53,65.19 ± 0.02,–,–,183,–,23 ± 0.05,13 ± 0.43,73.8 ± 0.04,44.7,–,21.2 ± 0.25,–
"CCn1c(=S)sc2sc(Nc3c(C)n(C)n(-c4ccccc4)c3=O)nc21 [Compound 5b, 4-((4-Ethyl-5-thioxo-4,5-dihydrothiazolo[4,5-d]thiazol-2-yl)amino)-1,5-dimethyl-2-phenyl-1H-pyrazol-3(2H)-one]",185,–,28 ± 0.12,18 ± 0.95,183 to 185,122,135,–,48.04 ± 0.03,12 ± 0.07,15.9,15.2,10 ± 0.42,–,27 ± 0.41,43.94 ± 0.02,–,193,16 ± 0.88,–
"Cc1c(Nc2nc3c(s2)sc(=S)n3C)c(=O)n(-c2ccccc2)n1C [Compound 5c, 1,5-Dimethyl-4-((4-methyl-5-thioxo-4,5-dihydrothiazolo[4,5-d]thiazol-2-yl)amino)-2-phenyl-1H-pyrazol-3(2H)-one]",79.4,17.8,15 ± 0.86,22 ± 0.48,189 to 191,62.2,68.8,26 ± 0.17,11.85 ± 0.03,19 ± 0.23,178,18.9,25 ± 0.1,17 ± 0.78,24 ± 0.89,14.69 ± 0.03,125,20.8,20 ± 0.08,–
"Cc1c(Nc2nc3c(s2)sc(=S)n3-c2ccc(Cl)cc2)c(=O)n(-c2ccccc2)n1C [Compound 5d, 4-((4-(4-Chlorophenyl)-5-thioxo-4,5-dihydrothiazolo[4,5-d]thiazol-2-yl)amino)-1,5-dimethyl-2-phenyl-1H-pyrazol-3(2H)-one]",–,–,–,13 ± 0.11,211 to 213,180,18.9,–,81.5 ± 0.03,–,–,–,15 ± 0.04,–,–,88.56 ± 0.01,–,118,25 ± 0.13,–
"COc1cccc2c1C(=O)c1c(O)c3c(c(O)c1C2=O)C[C@@](O)(C(=O)CO)C[C@@H]3O[C@H]1C[C@H](N)[C@H](O)[C@H](C)O1 [Doxorubicin, doxorubicin, reference compound]",–,–,–,–,–,–,–,–,5.66 ± 0.01,–,–,–,–,–,–,4.62 ± 0.01,–,–,–,–
"[H]/N=C(/N)N[C@H]1[C@H](O)[C@@H](O)[C@H](O[C@@H]2O[C@@H](C)[C@](O)(C=O)[C@H]2O[C@@H]2O[C@@H](CO)[C@H](O)[C@@H](O)[C@@H]2NC)[C@@H](N/C(N)=N\[H])[C@@H]1O [Streptomycin, reference compound]",–,–,–,–,–,68.2,16.8,–,–,–,65.3,19.5,–,23 ± 0.92,–,–,47.1,9.18,–,"zone of inhibition at 500 µg/mL ([5]; Streptococcus pneumoniae, 010010, well diffusion agar, 0.5 mg/mL, read-out: Mean diameter of inhibition zone (mean ± SEM) S. pneumoniae 010010): 22 ± 0.81 mm; zone of inhibition at 500 µg/mL ([6]; well diffusion agar, 0.5 mg/mL): 20 ± 0.53 mm; zone of inhibition at 500 µg/mL ([12]; RCMB010052, well diffusion agar, 0.5 mg/mL, read-out: Mean diameter of inhibition zone (mean ± SEM) E. coli RCMB 010052): 27 ± 0.56 mm; zone of inhibition at 500 µg/mL ([14]; well diffusion agar, 0.5 mg/mL): 25 ± 0.38 mm; zone of inhibition at 500 µg/mL ([18]; Staphylococcus aureus, 25923, well diffusion agar, 0.5 mg/mL, read-out: Mean diameter of inhibition zone (mean ± SEM) S. aureus 25923): 26 ± 0.45 mm"

# From PMC8694192, “Synthesis and biological evaluation of new derivatives of thieno-thiazole and dihydrothiazolo-thiazole scaffolds integrated with a pyrazoline nucleus as anticancer and multi-targeting kinase inhibitors” (RSC Advances, 2021)
